Legend:
TNKS2 ARC5 = molecular target: T1, TNKS2 ARC5 (Homo sapiens, UniProt Q9H2K2); assay: Differential scanning fluorimetry (DSF, thermal shift); format: binding; settings: fragment 500 μM
T1 construct: followed by TNKS2 ARC5 (1 μL, 100 μM stock); His6-GST; made in house; host or cells: E. coli
Protocol: Therefore, we chose TNKS2 ARC5 for screening by DSF, anticipating the largest signal window for measuring changes in Tm upon fragment binding.
We screened 1869 compounds in duplicate at a concentration of 500 μM, which we considered a reasonable compromise between having a sufficiently high concentration to identify weak binders while minimising the likelihood of false positives through fragment precipitation/aggregation and non-specific binding. The final DMSO concentration was 5%. We calculated melting temperatures using both the inflection point and the maximum peak of first derivative data methods. Both methods generally agreed, unless the melt curve was biphasic or misshapen, with slightly lower variability for the […] Tm determination method (see Materials and Methods for experimental and analysis details).
We determined the melting temperature for the unbound ARC (Tm, 0) from the mean of 12 reference melting curves per plate, with 5% DMSO only. We calculated the change in melting temperature (ΔTm) by subtracting the mean Tm, 0 from Tm, compound. We tested compounds in duplicate, defining fragments as hits if they conferred a ΔTm outside two standard deviations (2σ) from the mean, in one or both replicates. To check for consistency between plates, we ran triplicate peptide controls; however, we excluded peptide ΔTm values from the calculation of the mean ΔTm to avoid skewing the results. We observed mean ΔTm values (IP/1st derivative methods) of −0.127/−0.331 °C and σ as 0.997/1.19 °C. A hit cut-off of 2σ gave absolute shifts of +1.87/+2.05 °C for compounds that stabilised and −2.13/−2.71 °C for compounds that destabilised the ARC (Fig. 2B).
For the screen, a C1000 thermal cycler (Bio-Rad) was used to record melt curves. SYPRO Orange was purchased as a 5000 × stock in DMSO from Sigma Aldrich. The ICR fragment library was available as 100 mM stocks in DMSO, and dispensed (25 nL) using an ECHO acoustic liquid handling system into white 384-well PCR plates (Framestar, 4titude). Wells were backfilled with DMSO (225 nL). Buffer (2.75 μL, 25 mM HEPES-NaOH pH 7.5, 100 mM NaCl, 2 mM TCEP) was added, followed by TNKS2 ARC5 (1 μL, 100 μM stock) and then SYPRO orange dye (1 μL, 25×). The plate was centrifuged after the addition of each reagent (1 min, 1000 × g). Final assay concentrations were as follows: TNKS2 ARC5 (20 μM); fragment (500 μM); SYPRO Orange dye (5×); DMSO (5% v/v) in a total volume of 5 μL. Peptide control wells (3BP2 TBM 16-mer, 200 μM, sequence LPHLQRSPPDGQSFRSW with C-terminal tryptophan added for photometric concentration measurements, the N-terminus acetylated and the C-terminus amide-capped) were plated in triplicate, and there were 12 blank wells per plate, with DMSO only (250 nL, 5% v/v). Melt curves were recorded from 20–95 °C, with the temperature ramped by 0.5 °C every 15 s. Data were analysed using Vortex (Dotmatics) software and melting temperatures calculated from both the inflection point and the maximum peak of 1st-derivative data. Data points were excluded if the melt curve was poor, i.e., if there was no fluorescence signal above baseline, high fluorescence intensity throughout, or if the melt curve was shallow (<1000 rfu difference between baseline and peak maximum). The unbound melting temperature was determined from the mean of 12 reference melting curves, with 5% DMSO only. The change in melting temperature (ΔTm) was calculated by subtracting the mean Tm, 0 from Tm, compound. Compounds were tested in duplicate, and fragments were defined as hits if they gave a ΔTm outwith 2 σ from the mean in one or both replicates.
For the experiment shown in Fig. 2A, ARC and 3BP2 TBM peptide concentrations were 20 and 200 μM, respectively, in 50 mM HEPES-NaOH pH 7.5, 100 mM NaCl, 2 mM TCEP and a total volume of 25 μL. SYPRO Orange was added at 5×. Data were recorded from 4–95 °C, with the temperature ramped by 0.5 °C every 15 s, using a CFX384 thermal cycler (Bio-Rad). […]

TNKS2 ARC4 = molecular target: T2, TNKS2 ARC4 (Homo sapiens, UniProt Q9H2K2); assay: Primary fragment screen by T2 relaxation-edited ligand-observed NMR (cocktails of four); format: binding; settings: fragments 1 mM each, 35 μM protein
T2 construct: The cell was filled with TNKS2 ARC4 (488–649); His6-GST; made in house; host or cells: E. coli
T2 sequence (Q9H2K2 488-649): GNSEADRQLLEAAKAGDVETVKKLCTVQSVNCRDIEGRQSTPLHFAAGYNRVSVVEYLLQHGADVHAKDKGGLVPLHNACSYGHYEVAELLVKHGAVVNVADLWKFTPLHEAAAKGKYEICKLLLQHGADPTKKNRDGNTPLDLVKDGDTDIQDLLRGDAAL
Excerpt: The hit rate for compounds confirmed to bind TNKS2 ARC5 as evaluated by NMR was relatively low, at 0.78%, and only 0.16% for fragments binding TNKS2 ARC4 and 5 competitively with a TBM peptide. Different screening assays often identify distinct hit fragments. There is no consensus on the most appropriate assays to use for fragment screening, especially against challenging targets such as protein-protein interactions. Often several orthogonal methods are used in series to narrow down fragment hits, or a combination of biophysical and biochemical assays to exclude false positives and identify binders that modulate protein activity. We therefore carried out an additional primary screen using T2 relaxation-edited ligand-observed NMR on TNKS2 ARC4, probing a subset of molecules from the ICR fragment library that was compatible with NMR. […]
Data were processed using Bruker Topsin 3.14, then analysed using the MNova Screen software. […] The relative peak intensity change (I) was calculated by Eq. 1 for all peaks in the 5.5–9.5 ppm region, for each compound.1 I=(Iblank−Iprotein)/Iblank
The average percentage change was then calculated, and compounds designated a hit if the signal was reduced by ≥26% (2 σ). […] Protein ^1H spectra of TNKS2 ARC4 (200 μM) were measured at 24 h intervals to ensure protein stability and folding for the duration of the screening experiments.

T1 sequence (Q9H2K2 641-800): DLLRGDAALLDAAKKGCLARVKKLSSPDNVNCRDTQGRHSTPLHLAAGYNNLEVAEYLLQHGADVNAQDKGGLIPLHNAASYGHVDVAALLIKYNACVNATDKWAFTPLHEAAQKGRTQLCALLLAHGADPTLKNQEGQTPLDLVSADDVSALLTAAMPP

hit in DSF primary screen (TNKS2 ARC5)	hit in NMR primary screen (TNKS2 ARC4)	SMILES
hits	hits	Nc1nc(Nc2ccccc2)nc2ccccc12 [compound 7]
hits	hits	CCOc1cccc(-c2cc(N)[nH]n2)c1 [compound 6]

Reference: article PMC6911004, “Fragment-based screening identifies molecules targeting the substrate-binding ankyrin repeat domains of tankyrase” (Scientific Reports, 2019)
